Assay results taken from publication PMC9123836 (Bioorganic & Medicinal Chemistry, 2022).

Tests used:
α-glucosidase [1] = biological target: T1, α-glucosidase (Saccharomyces cerevisiae, UniProt P53341); experiment: enzyme kinetic study; type: biochemical; settings: Lineweaver-Burk plot
LO2 cells = experiment: cytotoxicity against normal cells; type: cell-based, human; settings: at the 100 µM level; MTT, 72 h
[2] = tested on: SARS-CoV-2 spike pseudovirus; experiment: organism not typed; type: cell-based
α-glucosidase [3] = biological target: T1, α-glucosidase; experiment: in vitro α-glucosidase inhibitory activity; type: biochemical; settings: mean ± SD (n = 3); test concentration not given

T1 sequence (P53341 whole entry): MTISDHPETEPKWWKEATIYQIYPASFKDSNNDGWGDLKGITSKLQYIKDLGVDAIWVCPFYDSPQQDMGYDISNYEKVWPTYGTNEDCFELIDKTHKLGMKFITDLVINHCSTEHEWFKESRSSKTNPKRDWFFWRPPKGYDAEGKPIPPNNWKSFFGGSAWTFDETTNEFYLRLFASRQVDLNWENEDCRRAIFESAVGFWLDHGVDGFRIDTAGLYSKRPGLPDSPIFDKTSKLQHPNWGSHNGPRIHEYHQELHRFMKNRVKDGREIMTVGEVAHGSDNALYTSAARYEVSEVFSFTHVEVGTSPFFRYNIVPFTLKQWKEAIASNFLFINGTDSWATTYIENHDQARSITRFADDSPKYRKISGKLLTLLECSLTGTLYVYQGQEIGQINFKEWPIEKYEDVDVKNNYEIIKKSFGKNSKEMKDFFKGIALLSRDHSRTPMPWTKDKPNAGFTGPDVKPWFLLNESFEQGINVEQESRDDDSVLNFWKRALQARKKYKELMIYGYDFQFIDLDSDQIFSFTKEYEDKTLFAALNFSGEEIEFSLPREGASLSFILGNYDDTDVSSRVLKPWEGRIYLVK

C=CCc1cc(-c2cc(CC=C)c3oc(SCc4nnc(-c5cccc(C)c5)o4)nc3c2)c2oc(SCc3nnc(-c4cccc(C)c4)o3)nc2c1 [Compound 7l]
inhibition mode towards α-glucosidase (α-glucosidase [1]): noncompetitive α-glucosidase inhibitor
survival rates of LO2 cells (LO2 cells): above 80%

C=CCc1cc(CSc2nnc(-c3ccccc3)o2)c(O)c(-c2ccc(O)c(CC=C)c2)c1 [Compound 9a]
inhibition of SARS-CoV-2 pseudovirus entry ([2]; at 100 μM): almost completely inhibited
survival rates of LO2 cells (LO2 cells): above 80%

C=CCc1cc(CSc2nnc(-c3cccnc3)o2)c(O)c(-c2ccc(O)c(CC=C)c2)c1 [Compound 9r]
survival rates of LO2 cells (LO2 cells): above 80%

Cc1cc(-c2ccc(/N=N/c3ccc4c(S(=O)(=O)O)cc(S(=O)(=O)O)c(N)c4c3O)c(C)c2)ccc1/N=N/c1ccc2c(S(=O)(=O)O)cc(S(=O)(=O)O)c(N)c2c1O [Evans blue, reference compound]
IC50 ([2]; HEK293, read-out: IC50 (µM) against pseudovirus entry): 22 ± 1.98 µM

C[C@H]1O[C@H](O[C@H]2[C@H](O)[C@@H](O)[C@@H](O[C@H]3[C@H](O)[C@@H](O)C(O)O[C@@H]3CO)O[C@@H]2CO)[C@H](O)[C@@H](O)[C@@H]1N[C@H]1C=C(CO)[C@@H](O)[C@H](O)[C@H]1O (stereo partly shown) [acarbose]
Inhibition rate (%) (α-glucosidase [3]): 96.4 ± 0.5%
